Measured values taken from patent US20080118434A1 (The Board of the Trustees of The Leland Stanford J, priority 2003, published 2008).

Tests used:
[1] = tested on: hypothalamic genes (mRNA levels); assay: Microarray analysis of gene expression in hypothalamus of rats treated chronically with antidepressants; format: in vivo, rat; conditions: rats treated with fluoxetine, bupropion and/or desipramine; i.p. twice daily for four weeks
Excerpt: Membrane microarray analysis was used to compare expression levels of over 8,000 genes in the hypothalamus of rats treated chronically with a specific serotonin reuptake inhibitor (i.e., fluoxetine), a tricyclic antidepressant (i.e., desipramine), and a dopamine reuptake inhibitor (i.e., bupropion).
(§1) Adult Sprague-Dawley male rats (250-300 g) were assigned to one of the following four groups (n=10 per group): 1. Saline injected animals (controls). 2. Bupropion treated animals. 3. Desipramine treated animals, and 4. Fluoxetine treated animals. Bupropion (20 mg/kg/day), Desipramine (10 mg/kg/d), Fluoxetine (10 mg/kg/d) and Saline were injected twice daily intraperitoneal (i.p.) for four weeks. Animals were sacrificed in the AM, the day after the last injection. Brains were obtained by rapid decapitation, and processed for gene array analysis (GAA), RT-PCR and in situ hybridization.
(§2) Four brains from each group were used for GAA, and real time RT-PCR confirmation. The remaining six brains were sectioned for in situ hybridization confirmation of the gene array analysis.
(§3) Array analysis was done using GeneChip® Rat Neurobiology U34 Arrays (Affymetrix). Whole hippocampus were dissected and total RNA samples were extracted using standard methods (Trizol, Invitrogen; Quigen Rneasy Mini Kit). Total RNA from each of the experimental groups were pooled. The column purified total RNA (10 μg) was converted to biotinylated cRNA hybridization probe following the manufacturers protocol. Labeled cRNA (30 ug) was fragmented in fragmentation buffer, and 15 ug were hybridized to the oligonucletide microarray in 300 μl of hybridization solution.
(§4) Samples from each group were run in independently labeled triplicates. The raw intensity data was analyzed with dCHIP software (Li and Wong, 2002).
Genes were identified using a criteria of greater than 20% fold change (90% lower bound confidence limit) and a t-test value yielding a probability of p<0.05.
The microarray analysis results were confirmed by in situ hybridization.

[2] = tested on: hippocampal genes (mRNA levels); assay: Microarray analysis (GeneChip Rat Neurobiology U34) of gene expression in hippocampus of rats treated chronically with antidepressants; format: in vivo; conditions: for hippocampal genes commonly regulated by fluoxetine and desipramine (list: Glutathione peroxidase 1 ... Insulin like growth factor II, Somatostatin): 10 mg/kg/d each; for hippocampal genes commonly regulated by fluoxetine and desipramine (list: Glutathione peroxidase 1 ... Insulin like growth factor II, Somatostatin) / hippocampal genes commonly regulated by desipramine and bupropion (list: NG,NG dimethylarginine dimethylaminohydrolase ... Retina S-antigen) / hippocampal genes commonly regulated by fluoxetine and bupropion (list: Transferrin ... Carbonic anhydrase 2): i.p., four weeks, vs saline; for hippocampal genes commonly regulated by fluoxetine and desipramine (list: Glutathione peroxidase 1 ... Insulin like growth factor II, Somatostatin) / hippocampal genes commonly regulated by desipramine and bupropion (list: NG,NG dimethylarginine dimethylaminohydrolase ... Retina S-antigen): >20% fold change, p<0.05; for hippocampal genes commonly regulated by desipramine and bupropion (list: NG,NG dimethylarginine dimethylaminohydrolase ... Retina S-antigen): desipramine 10 mg/kg/d; for hippocampal genes commonly regulated by desipramine and bupropion (list: NG,NG dimethylarginine dimethylaminohydrolase ... Retina S-antigen) / hippocampal genes commonly regulated by fluoxetine and bupropion (list: Transferrin ... Carbonic anhydrase 2): bupropion 20 mg/kg/day; for hippocampal genes commonly regulated by fluoxetine and bupropion (list: Transferrin ... Carbonic anhydrase 2): fluoxetine 10 mg/kg/d, selected results confirmed by real time RT-PCR
Description: as §1, §2, §3, §4
Using a criteria of greater than 20% fold change (90% lower bound confidence limit) and a t-test value yielding a probability of p<0.05, we found 28 genes that were regulated by all three antidepressants compared to saline treatment. Nine of these genes were ESTs.
Regulation of these genes can conveniently be confirmed by Real Time RT-PCR, and in situ hybridization. Regulation of two of the genes has been confirmed by RT-PCR.

[3] = rats treated with desipramine and/or bupropion
[4] = rats treated with fluoxetine and/or desipramine
[5] = rats treated with fluoxetine, bupropion and/or desipramine, i.p. twice daily for four weeks
[6] = rats treated with bupropion and/or fluoxetine

Structure (SMILES)	number of hypothalamic genes with altered mRNA levels [1]	hippocampal genes commonly regulated by fluoxetine and desipramine (list: Glutathione peroxidase 1 ... Insulin like growth factor II, Somatostatin) [2]	hippocampal genes commonly regulated by desipramine and bupropion (list: NG,NG dimethylarginine dimethylaminohydrolase ... Retina S-antigen) [2]	number of hippocampal genes with altered mRNA levels [2, 3]	number of hippocampal genes with altered mRNA levels [2, 4]	number of hippocampal genes with altered mRNA levels [2, 5]	hippocampal genes commonly regulated by fluoxetine and bupropion (list: Transferrin ... Carbonic anhydrase 2) [2]	number of hippocampal genes with altered mRNA levels [2, 6]
CNCCCN1c2ccccc2CCc2ccccc21 [desipramine]	3	commonly regulated	commonly regulated	46	33	18		
CNCCC(Oc1ccc(C(F)(F)F)cc1)c1ccccc1 (stereo not drawn) [fluoxetine]	3	commonly regulated			33	18	commonly regulated	11
CC(NC(C)(C)C)C(=O)c1cccc(Cl)c1 (stereo not drawn) [bupropion]	3		commonly regulated	46		18	commonly regulated	11
